Values quoted from earlier work in patent US20240207481A1, “KIT OF GEL-FORMING SOLUTIONS INTENDED FOR PREPARATION OF HYDROGEL BASED ON COVALENTLY CROSSLINKED HYDROXYPHENYL DERIVATIVE OF HYALURONAN FOR PREVENTION OF POSTOPERATIVE COMPLICATIONS RELATED TO FORMATION OF COLORECTAL ANASTOMOSIS, USE OF KIT, METHOD OF PREPARATION OF HYDROGEL AND USE THREREOF” (CONTIPRO A.S., priority 2020, published 2024).

- solubility in water: poorly soluble
- solubility in polar organic solvents (ethanol, chloroform, isopropanol): well soluble
SMILES: Oc1cc(Cl)ccc1Oc1ccc(Cl)cc1Cl [Triclosan, 2,4,4′-trichloro-2′-hydroxydiphenyl ether]
